Results as given in US7279499B2, “Substituted benzopyrans as selective estrogen receptor-beta agonists” (Eli Lilly and Company, priority 2004, dated 2007).

SMILES | melting point
OCc1cc(O)cc2c1O[C@@H](c1ccc(O)cc1)[C@H]1CCC[C@@H]21 (single isomer, unassigned) [Example 2B] | 195 to 197 °C
CCOCc1cc(O)cc2c1O[C@@H](c1ccc(O)cc1)[C@H]1CCC[C@@H]21 (single isomer, unassigned) [Example 3B] | 62 to 66 °C
COCc1cc(O)cc2c1O[C@@H](c1ccc(O)cc1)[C@H]1CCC[C@@H]21 [Example 1B, (3aS, 4R, 9bR)-4-(4-Hydroxy-phenyl)-6-methoxymethyl-1,2,3,3a,4,9b-hexahydro-cyclopenta[c]chromen-8-ol] | 76 to 80 °C
